Results as given in ChEMBL document CHEMBL2331419, “Benzimidazole-carboxamides as potent and bioavailable stearoyl-CoA desaturase (SCD1) inhibitors from ligand-based virtual screening and chemical optimization” (Bioorg Med Chem Lett, 2013).
Values belong to the compound of their own block, whether it stands above or below them.

Tests used:
Acyl-CoA desaturase 1 [1] = target: T1, Acyl-CoA desaturase 1 (Rattus norvegicus, UniProt P07308); test: Inhibition of SCD1 in Wistar rat liver microsomes using [14C] stearic acid as substrate incubated for 10 mins prior to substrate addition measured after 1 hr by chromatographic analysis; design: species or system Microsome
T1 sequence (P07308 whole entry): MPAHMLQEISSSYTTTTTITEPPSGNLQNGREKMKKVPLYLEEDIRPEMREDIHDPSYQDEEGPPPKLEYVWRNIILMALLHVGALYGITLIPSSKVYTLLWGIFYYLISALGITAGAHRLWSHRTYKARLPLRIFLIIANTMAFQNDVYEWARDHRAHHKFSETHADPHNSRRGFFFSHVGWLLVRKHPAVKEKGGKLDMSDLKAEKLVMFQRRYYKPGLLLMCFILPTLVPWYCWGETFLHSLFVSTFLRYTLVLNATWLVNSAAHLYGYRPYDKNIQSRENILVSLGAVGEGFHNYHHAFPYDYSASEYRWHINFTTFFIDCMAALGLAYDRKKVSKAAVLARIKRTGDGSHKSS

[2] = Permeability across human Caco2 cells; type: ADME, cell-based; conditions: Caco-2, read-out: permeability
[3] = Drug metabolism in mouse; type: ADME, organism-based; conditions: in vivo, read-out: Drug metabolism
[4] = Drug metabolism in human in presence of quinidine; type: ADME, organism-based; conditions: in vivo, with quinidine, read-out: Drug metabolism
[5] = Drug metabolism in human; type: ADME, organism-based; conditions: in vivo, read-out: Drug metabolism
Stearoyl-CoA desaturase = target: T2, Stearoyl-CoA desaturase (Homo sapiens, UniProt O00767); test: Inhibition of SCD1 in human HepG2 cells; type: cell-based
T2 sequence (O00767 whole entry): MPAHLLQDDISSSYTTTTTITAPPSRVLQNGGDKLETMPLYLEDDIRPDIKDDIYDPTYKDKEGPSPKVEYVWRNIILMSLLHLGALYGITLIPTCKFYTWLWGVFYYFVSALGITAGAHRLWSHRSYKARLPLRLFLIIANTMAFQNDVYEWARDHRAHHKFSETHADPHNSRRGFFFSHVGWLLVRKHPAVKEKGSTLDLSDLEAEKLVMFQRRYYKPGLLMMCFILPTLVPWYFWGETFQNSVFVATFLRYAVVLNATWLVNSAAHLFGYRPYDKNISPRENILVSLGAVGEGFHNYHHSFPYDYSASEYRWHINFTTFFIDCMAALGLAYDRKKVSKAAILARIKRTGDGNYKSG

[6] = Drug metabolism in human in presence of ketoconazole; type: ADME, organism-based; conditions: in vivo, with ketoconazole, read-out: Drug metabolism
[7] = Drug metabolism in rat; type: ADME, organism-based; conditions: in vivo, read-out: Drug metabolism
[8] = Lipophilicity, log D of the compound at pH 7.4; type: physicochemical; conditions: buffer
Acyl-CoA desaturase 1 [9] = target: T1, Acyl-CoA desaturase 1; test: Inhibition of SCD1 in rat H42E cells; type: cell-based
HepG2 = test: Inhibition of ACC phosphorylation in human HepG2 cells at 10 uM by Western blotting analysis relative to control; type: cell-based
[10] = Plasma clearance in Zucker diabetic fatty rat at 5 mg/kg, iv; type: ADME, organism-based; design: dose 5 mg/kg, route intravenous
[11] = Oral bioavailability in Zucker diabetic fatty rat at 30 mg/kg; type: ADME, organism-based; conditions: in vivo
[12] = Apparent half life in Zucker diabetic fatty rat at 30 mg/kg, po; type: ADME, organism-based; design: dose 30 mg/kg, route oral; conditions: in vivo, read-out: t1/2(app) (converted)
Rattus norvegicus [13] = test: In vivo inhibition of SCD1 in Zucker diabetic fatty rat assessed as decrease in serum fatty acid desaturation index at 30 mg/kg, po after 6 hrs relative to vehicle-treated control; type: functional
[14] = Cmax in Zucker diabetic fatty rat at 30 mg/kg, po after 4 hrs; type: ADME, organism-based; design: dose 30 mg/kg, route oral; conditions: in vivo
[15] = Half life in Zucker diabetic fatty rat at 5 mg/kg, iv; type: ADME, organism-based; design: dose 5 mg/kg, route intravenous; conditions: in vivo
Rattus norvegicus [16] = test: Volume of distribution at steady state in Zucker diabetic fatty rat at 5 mg/kg, iv; type: ADME, organism-based; design: dose 5 mg/kg, route intravenous; conditions: in vivo

SMILES: CC(C)CCNC(=O)c1ccc2[nH]c(-c3ccc(Oc4ccccc4Cl)cc3)nc2c1
- IC50 (Acyl-CoA desaturase 1 [1]): 2720 nM

SMILES: O=C(CCc1ccccc1)Nc1ccc(N2CCN(C(=O)c3ccccc3C(F)(F)F)CC2)nc1
- IC50 (Acyl-CoA desaturase 1 [1]): 2260 nM

SMILES: O=C(NCc1cccs1)c1ccc2nc(-c3ccc(C(=O)c4ccccc4C(F)(F)F)cc3)[nH]c2c1
- IC50 (Acyl-CoA desaturase 1 [1]): 99 nM

SMILES: O=C(NCc1ccc(Cl)s1)c1ccc2nc(-c3ccc(Oc4ccccc4Cl)cc3)[nH]c2c1
- Papp [2]: 11.4 ×10⁻⁶ cm/s
- metabolised [3]: 36%
- metabolised [4]: 62%
- IC50 (Acyl-CoA desaturase 1 [1]): 832 nM
- metabolised [5]: 64%
- IC50 (Stearoyl-CoA desaturase): 1360 nM
- metabolised [6]: 41%
- metabolised [7]: 31%

SMILES: O=C(NCc1nccs1)c1cccc(-c2nc3cc(Oc4ccccc4C(F)(F)F)ccc3[nH]2)c1
- IC50 (Acyl-CoA desaturase 1 [1]): 1300 nM

SMILES: OC(c1ccc2[nH]c(-c3ccc(OCc4ccccc4)cc3)nc2c1)c1ccccc1C(F)(F)F (racemic)
- Papp [2]: 18.2 ×10⁻⁶ cm/s
- metabolised [4]: 60%
- IC50 (Acyl-CoA desaturase 1 [9]): 14 nM
- IC50 (Acyl-CoA desaturase 1 [1]): 82 nM
- metabolised [5]: 71%
- IC50 (Stearoyl-CoA desaturase): 295 nM
- metabolised [6]: 46%
- metabolised [7]: 20%

SMILES: CC(C)CCNC(=O)c1ccc2nc(-c3ccc(C(=O)c4ccccc4C(F)(F)F)cc3)[nH]c2c1
- IC50 (Acyl-CoA desaturase 1 [1]): 3860 nM

SMILES: O=C(NCc1ccc(Cl)s1)c1cccc(-c2nc3cc(Oc4ccccc4C(F)(F)F)ccc3[nH]2)c1
- IC50 (Acyl-CoA desaturase 1 [1]): 2210 nM

SMILES: O=C(NCc1ccc(Cl)s1)c1ccc2nc(-c3ccc(Oc4ccccc4C(F)(F)F)cc3)[nH]c2c1
- IC50 (Acyl-CoA desaturase 1 [1]): 142 nM
- IC50 (Stearoyl-CoA desaturase): 439 nM

SMILES: O=C(NCCC1CC1)c1ccc2[nH]c(-c3ccc(Oc4ccccc4Cl)cc3)nc2c1
- inhibition (HepG2): 140%

SMILES: CCn1c(COCc2ccccc2)nc2cc(C(=O)NCCc3ccc(O)cc3)ccc21
- IC50 (Acyl-CoA desaturase 1 [1]): 5000 nM

SMILES: CNC(=O)c1ccc2nc(-c3ccc(Oc4ccccc4C(F)(F)F)cc3)[nH]c2c1
- IC50 (Acyl-CoA desaturase 1 [1]): 27200 nM

SMILES: O=C(Cc1cccs1)Nc1ccc2nc(N3CCN(C(=O)c4ccccc4C(F)(F)F)CC3)[nH]c2c1
- IC50 (Acyl-CoA desaturase 1 [1]): 3200 nM

SMILES: CC(C)CCNC(=O)c1ccc2nc(-c3ccc(Oc4ccccc4C(F)(F)F)cc3)[nH]c2c1
- IC50 (Acyl-CoA desaturase 1 [1]): 434 nM

SMILES: O=C(NCCC1CC1)c1ccc2nc(-c3ccc(Oc4ccccc4C(F)(F)F)cc3)[nH]c2c1
- IC50 (Acyl-CoA desaturase 1 [1]): 539 nM

SMILES: O=C(NCc1ccc(Cl)s1)c1ccc2[nH]c(-c3ccc(C(=O)c4ccccc4C(F)(F)F)cc3)nc2c1
- clearance [10]: 4.17 mL/min/kg
- bioavailability [11]: 25%
- half-life [12]: 8.4 h
- inhibition in vivo at 30 mg/kg (Rattus norvegicus [13]): 84.4%
- Cmax [14]: 1950 ng/mL
- Papp [2]: 5.26 ×10⁻⁶ cm/s
- logD [8]: 3.94
- metabolised [4]: 40%
- IC50 (Acyl-CoA desaturase 1 [9]): 182 nM
- IC50 (Acyl-CoA desaturase 1 [1]): 136 nM
- half-life [15]: 6.5 h
- metabolised [5]: 45%
- IC50 (Stearoyl-CoA desaturase): 157 nM
- metabolised [6]: 10%
- metabolised [7]: 40%
- Vdss (Rattus norvegicus [16]): 1.7 L/kg

SMILES: O=C(NCc1nccs1)c1ccc2[nH]c(-c3ccc(C(=O)c4ccccc4C(F)(F)F)cc3)nc2c1
- IC50 (Acyl-CoA desaturase 1 [9]): 104 nM
- IC50 (Acyl-CoA desaturase 1 [1]): 78 nM
- IC50 (Stearoyl-CoA desaturase): 179 nM

SMILES: O=C(Nc1nccs1)c1ccc2nc(-c3ccc(C(=O)c4ccccc4C(F)(F)F)cc3)[nH]c2c1
- IC50 (Acyl-CoA desaturase 1 [1]): 4520 nM

SMILES: O=C(c1ccccc1)c1ccc2nc(-c3ccc(C(=O)c4ccccc4C(F)(F)F)cc3)[nH]c2c1
- IC50 (Acyl-CoA desaturase 1 [1]): > 100000 nM

SMILES: CCOC(=O)c1ccc2[nH]c(-c3ccc(Oc4ccccc4C(F)(F)F)cc3)nc2c1
- IC50 (Acyl-CoA desaturase 1 [1]): 38300 nM

SMILES: O=C(NCc1nccs1)c1ccc2nc(-c3ccc(Oc4ccccc4Cl)cc3)[nH]c2c1
- Papp [2]: 6.36 ×10⁻⁶ cm/s
- logD [8]: 2.24
- metabolised [3]: 23%
- metabolised [4]: 40%
- IC50 (Acyl-CoA desaturase 1 [9]): 305 nM
- IC50 (Acyl-CoA desaturase 1 [1]): 115 nM
- metabolised [5]: 45%
- IC50 (Stearoyl-CoA desaturase): 1160 nM
- metabolised [6]: 16%
- metabolised [7]: 38%

SMILES: O=C(NCc1nccs1)c1ccc2[nH]c(-c3ccc(Oc4ccccc4C(F)(F)F)cc3)nc2c1
- IC50 (Acyl-CoA desaturase 1 [1]): 212 nM
- IC50 (Stearoyl-CoA desaturase): 313 nM

The remaining lines, values ahead:

- IC50 (Acyl-CoA desaturase 1 [1]): 6510 nM
SMILES: O=C(NCc1nccs1)c1ccc2nc(-c3ccc(Oc4ccccc4)cc3)[nH]c2c1

- IC50 (Acyl-CoA desaturase 1 [1]): 15800 nM
SMILES: O=C(c1ccccc1)c1ccc2nc(-c3ccc(Oc4ccccc4)cc3)[nH]c2c1

- IC50 (Acyl-CoA desaturase 1 [1]): 24900 nM
SMILES: O=C(NCCC1CC1)c1ccc2nc(-c3ccc(Oc4ccccc4)cc3)[nH]c2c1

- IC50 (Acyl-CoA desaturase 1 [1]): 21600 nM
SMILES: CC(C)CCNC(=O)c1ccc2nc(-c3ccc(Oc4ccccc4)cc3)[nH]c2c1

- logD [8]: 3.68
- IC50 (Acyl-CoA desaturase 1 [1]): 3760 nM
SMILES: O=C(NCc1cccs1)c1ccc2nc(-c3ccc(Oc4ccccc4)cc3)[nH]c2c1

- IC50 (Acyl-CoA desaturase 1 [1]): 13300 nM
SMILES: O=C(c1ccc2nc(-c3ccc(OCc4ccccc4)cc3)[nH]c2c1)c1ccccc1C(F)(F)F

- IC50 (Acyl-CoA desaturase 1 [1]): 28300 nM
SMILES: O=C(NCCCc1ccccc1)c1ccc2nc(-c3ccc(Oc4ccccc4)cc3)[nH]c2c1

- IC50 (Acyl-CoA desaturase 1 [1]): 16600 nM
SMILES: O=C(NCC1CC1)c1ccc2[nH]c(-c3ccc(Oc4ccccc4)cc3)nc2c1

- IC50 (Acyl-CoA desaturase 1 [1]): 3700 nM
SMILES: O=C(NCc1ccc(Cl)s1)c1ccc2[nH]c(-c3ccc(Oc4ccccc4)cc3)nc2c1

- Papp [2]: 16.7 ×10⁻⁶ cm/s
- metabolised [3]: 49%
- metabolised [4]: 58%
- IC50 (Acyl-CoA desaturase 1 [1]): 966 nM
- metabolised [5]: 62%
- IC50 (Stearoyl-CoA desaturase): 2340 nM
- metabolised [6]: 45%
- metabolised [7]: 38%
SMILES: O=C(NCCC1CC1)c1ccc2nc(-c3ccc(Oc4ccccc4Cl)cc3)[nH]c2c1

- IC50 (Acyl-CoA desaturase 1 [1]): 11800 nM
SMILES: O=C(NCc1cccc(C(F)(F)F)c1)c1ccc2[nH]c(-c3ccc(Oc4ccccc4)cc3)nc2c1

- IC50 (Acyl-CoA desaturase 1 [1]): 7810 nM
SMILES: O=C(NCc1ccccc1)c1ccc2nc(-c3ccc(Oc4ccccc4)cc3)[nH]c2c1

- IC50 (Acyl-CoA desaturase 1 [1]): > 100000 nM
SMILES: O=C(c1ccccc1)c1ccc2nc(-c3ccc(-c4ccccc4)cc3)[nH]c2c1

- IC50 (Acyl-CoA desaturase 1 [1]): > 100000 nM
SMILES: O=C(NCCCc1ccccc1)c1ccc2nc(-c3ccc(Oc4ccccc4C(F)(F)F)cc3)[nH]c2c1
